The source of these data is patent publication US20210315816A1, “ANTIMICROBIAL COMPOSITIONS AND METHODS” (BOARD OF REGENTS OF THE UNIVERSITY OF NEBRASKA, priority 2018, published 2021).

For data set [1], the system named is S. aureus. As to conditions: 10 mg/kg, cited from earlier work.
The test system of data set [2] is bone marrow-derived macrophages. The experiment in a line: IL-4 pre-treated bone marrow-derived macrophages with oligomycin: TNF-α, arginase, protein yield. The protocol: Bone marrow-derived macrophages were plated overnight and the following day cells were pre-treated with IL-4 (10 ng/mL) for 1 hour followed by various concentrations of oligomycin for 24 hours, whereupon TNF-α (FIG. 2A) and arginase (FIG. 2B) expression was determined by ELISA and enzymatic assay, respectively. Data are presented as the mean±SD combined from two independent experiments (n=6 biological replicates) (*, p<0.05; **, p<0.01; ***, p<0.001; Student's t-test).
Macrophages were expanded from the bone marrow of both male and female C57BL/6NCrl mice as described (Yamada, et al. (2018) Infect. Immun., 86(7) e00206-18). At day in vitro 6, macrophages were harvested and seeded at 5×10^4 cells/well in a 96-well plate. Following an overnight adherence period, macrophages were pre-treated with 10 ng/mL recombinant mouse (rm)IL-4 (Cat #574306 BioLegend, San Diego, Calif.) for 1 hour followed by exposure to various concentrations of oligomycin (Cat #11342 Cayman Chemical) for 24 hours, whereupon medium was collected to quantify TNF-α by cytometric bead array (Cat #552364, BD Biosciences) and arginase activity (Cat #MAK112, Millipore Sigma).

In a further data set the test system is S. aureus USA300 LAC13c. The experiment in a line: Mouse model of S. aureus orthopedic implant biofilm infection, bacterial burdens. Type of data set: in vivo. As to the method:
To model infectious complications that can arise in patients following arthroplasty, a mouse model of S. aureus orthopedic implant infection was used (Heim, et al. (2014) Methods Mol. Biol., 1106:183-191; Heim, et al. (2015) J. Leukoc. Biol., 98:1003-1013; Heim, et al. (2014) J. Immunol., 192:3778-3792; Heim, et al. (2015) J. Immunol., 194:3861-3872; Scherr, et al. (2014) Methods Mol. Biol., 1106:173-181). […] Briefly, mice were anesthetized with ketamine/xylazine (100 mg/kg and 5 mg/kg, respectively) and the surgical site was disinfected with povidone-iodine. After a surgical plane of anesthesia was achieved, a medial incision was created through the quadriceps with lateral displacement to access the distal femur. […]
Animals were placed in an induction chamber without restraint and anesthetized with 2.5% isoflurane. […] Nanoparticle injection and length of retention was evaluated in the same cohort of mice using an In Vivo Imaging System (IVIS® Spectrum; PerkinElmer, Waltham, Mass.) under isoflurane anesthesia, with excitation and emission wavelengths of 640 nm and 680 nm, respectively. […]

The test system of data set [3] is biofilm-associated monocytes. The experiment in a line: JC-1 and 2-NBDG staining of biofilm-associated monocytes (OxPhos, glycolysis). As to conditions: days 3 or 7 after intra-articular injection at day 7 post-infection; oligomycin 100 ng. The class given is in vivo, mouse. As to the method:
C57BL/6NCrl mice received a single intra-articular injection of free oligomycin only (Oligo; 100 ng), empty nanoparticles (CT), empty nanoparticles (CT)+free oligomycin (100 ng; not loaded), or oligomycin loaded nanoparticles (CTO) at day 7 post-infection and were analyzed at day 3 (FIG. 12A, 12B; 5 mice/group) or 7 (FIGS. 12C, 12D; 9-10 mice/group) after treatment. FIGS. 12A, 12C: OxPhos was calculated as the ratio of […] monocytes (CD11b^highLy6G^−Ly6C^+F4/80^−) following JC-1 staining and glycolytic activity was calculated as the percentage of 2-NBDG+ monocytes. FIGS. 12B, 12D: Bacterial burdens were assessed in the surrounding soft tissue, knee, femur, and implant, where the dotted lines represent the limit of detection (LOD). All results are reported as the mean±SD (*, p<0.05; **, p<0.01; ***, p<0.001; ****, p<0.0001; One-way ANOVA).
Leukocytes recovered from animals with sterile or S. aureus infected orthopedic implants were stained with the bi-potential dye JC-1 (5,5′,6,6′-Tetrachloro-1,1′,3,3′-tetraethylbenzimidazolocarbocyanine iodide; Cat #T3168 Invitrogen) or the fluorescent glucose analog 2-NBDG (2-(N-(7-Nitrobenz-2-oxa-1,3-diazol-4-yl)Amino)-2-Deoxyglucose; Cat #N13195 ThermoFisher) to evaluate OxPhos and glycolytic activity, respectively. JC-1 emits red fluorescence in mitochondria with large membrane potentials and green fluorescence in depolarized mitochondria. […]

Data set [4] has as its system S. aureus. The experiment in a line: S. aureus biofilm formation in 96-well plates ± oligomycin. The class given is cell-based. As to conditions: 10 μg/mL. The protocol:
C57BL/6NCrl mice received intra-articular injections of oligomycin at 7 day post-infection (100 ng), or two sequential doses at days 7 and 8 post-infection (50 ng/day), or PBS and were sacrificed at day 14 post-infection. Bacterial burdens were quantified from the surrounding soft tissue, knee, femur, and implant. Results are from one experiment (n=5 mice/group/time point); (*, p<0.05; one-way ANOVA). Additionally, S. aureus biofilm formation was assessed in 96-well plates±oligomycin treatment (bottom graphs). Oligomycin (10 μg/mL) was added to planktonic S. aureus at time 0 (left panel) or mature biofilms for 4 days (right panel) to determine effects on bacterial growth at the indicated time points following oligomycin treatment. Cultures were replenished daily with fresh medium containing oligomycin. Results are presented as Log10 colony forming units (CFU) per well (mean±SD).

[5] abbreviates: IL-4 10 ng/mL 1 hour, then oligomycin 24 hours, dose-dependent.

Bounds are passed on as bounds.

Consider `CCCCCCCCCC(=O)N[C@@H](Cc1c[nH]c2ccccc12)C(=O)N[C@H](CC(N)=O)C(=O)N[C@@H](CC(=O)O)C(=O)N[C@@H]1C(=O)NCC(=O)N[C@@H](CCCN)C(=O)N[C@@H](CC(=O)O)C(=O)N[C@H](C)C(=O)N[C@@H](CC(=O)O)C(=O)NCC(=O)N[C@H](CO)C(=O)N[C@@H]([C@H](C)CC(=O)O)C(=O)N[C@@H](CC(=O)c2ccccc2N)C(=O)O[C@@H]1C` [daptomycin], for which the “S. aureus titers in the joint” value in the data set with S. aureus [1] is recorded as “less affected”. In addition, in the data set on S. aureus [1] (near the limit of detection), the “S. aureus burdens on orthopedic implants” value is on record as < 10^2 CFU.
Take `CC[C@H]1/C=C/C=C/C[C@@H](C)[C@H](O)[C@@](C)(O)C(=O)[C@@H](C)[C@H](O)[C@@H](C)C(=O)[C@@H](C)[C@H](O)[C@@H](C)/C=C/C(=O)O[C@@H]2[C@H](C)[C@H](CC1)O[C@]1(CC[C@H](C)[C@H](C[C@@H](C)O)O1)[C@H]2C` [oligomycin]: in data set [2], the “toxicity to macrophages (protein yields)” value was “not toxic to macrophages”. For the same compound, in data set [2] (setting [5]), the TNF-α expression entry is reported as “increasing TNF-α expression” and the arginase activity entry is given as “decreasing arginase activity”. In the data set with S. aureus USA300 LAC13c (days 3 or 7 after intra-articular injection, oligomycin 100 ng), the biofilm burdens entry is listed as “no changes”. Besides, the bacterial burdens entry with S. aureus USA300 LAC13c (direct intra-articular injection, one bolus (100 ng) or two sequential doses (50 ng/day), day 14 post-infection) is “no effect on bacterial burdens”. Besides, in data set [3], the “monocyte OxPhos activity (JC-1)” value is given as “no changes”. For the same compound, the “bactericidal activity during early biofilm formation or mature biofilms in vitro” value in the data set on S. aureus [4] was “no bactericidal activity”.
